{
  "source": "paper PMC11858854",
  "about": "“In Vitro and In Vivo Assessment of Pharmacokinetic Profile of Peramivir in the Context of Inhalation Therapy” (Pharmaceuticals, 2025)",
  "key": {"[1]": {"experiment": "Tissue distribution study in rats", "format": "in vivo", "conditions": "rat", "method": "Tissue distribution characteristics were studied following different deliveries of i.v. 3 mg/kg, i.t. 0.3 mg/kg, and i.t. 3 mg/kg in rats. The rats were euthanized at 5 min, 30 min, 1 h, 4 h, 12 h, and 24 h after administration. Blood was collected by puncture of the fundus venous plexus, and bronchoalveolar lavage was performed to obtain bronchoalveolar lavage (BAL) fluid samples, and then the main tissues were obtained by dissection. All the tissues were thoroughly rinsed in ice physiological saline, then weighed and stored at −40 °C for analysis.\nWhole blood was placed in EP tubes containing sodium heparin, and plasma was extracted by centrifugation at 4 °C, 5000× g for 10 min. […] Drug concentrations in the samples were determined using the LC-MS/MS method and drug concentrations in the BAL were converted to drug concentrations in epithelial lining fluid (ELF) using the urea nitrogen correction method.\nThe apparent volume of ELF in BAL fluid was determined by the urea dilution method described by Rennard. The estimated concentration of drugs in ELF was calculated as follows:CELF = CBAL × (UPlasma/UBAL)(1) where CBAL is the measured drug concentration in BAL fluid and UPlasma and UBAL are the measured concentrations of urea nitrogen in plasma and BAL fluid, respectively.\nThe Kp of each tissue was calculated as follows:Kp = AUC(0–t, tissue)/AUC(0–t, plasma)(2)"}, "human OCT1": {"target": "T1, human OCT1 (Homo sapiens, UniProt O15245)", "T1 construct": "host or cells: HEK293 (HEK293-OCT1); control HEK293-MOCK", "T1 sequence (O15245 1-554)": "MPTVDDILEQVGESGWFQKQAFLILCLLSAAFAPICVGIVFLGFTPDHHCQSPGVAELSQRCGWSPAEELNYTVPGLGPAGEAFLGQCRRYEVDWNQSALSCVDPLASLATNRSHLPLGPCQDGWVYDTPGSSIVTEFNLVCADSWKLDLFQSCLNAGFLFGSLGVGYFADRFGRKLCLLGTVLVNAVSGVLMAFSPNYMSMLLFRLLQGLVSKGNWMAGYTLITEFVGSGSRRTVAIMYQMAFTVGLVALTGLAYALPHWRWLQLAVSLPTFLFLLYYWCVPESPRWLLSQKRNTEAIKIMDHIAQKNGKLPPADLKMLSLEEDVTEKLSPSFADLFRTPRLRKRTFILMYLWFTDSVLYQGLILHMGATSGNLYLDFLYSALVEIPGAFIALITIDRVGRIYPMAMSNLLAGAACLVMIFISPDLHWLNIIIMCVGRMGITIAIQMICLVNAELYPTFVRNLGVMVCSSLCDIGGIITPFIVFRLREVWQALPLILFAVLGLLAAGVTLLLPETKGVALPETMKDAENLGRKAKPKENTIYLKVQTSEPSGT", "experiment": "Uptake study, HEK293 cells overexpressing OCT1", "format": "in vitro ADME", "method": "(§1) All cells (HEK293-MOCK, HEK293-OCT1, HEK293-OCT2, MDCK-MOCK, MDCK-OCTN1, and MDCK-OCTN2) were cultured in DMEM medium supplemented with 10% FBS and PS (100 U/mL), at 37 °C in a humidified 5% CO2 incubator. Cells were seeded on 24-well plates at a density of 1 × 10^4 cells/well. For the uptake assay, the DMEM media were removed, and the cells were washed with pre-warmed Hank’s buffer three times (1 mL/well). Subsequent addition of inhibitor-free/inhibitor-containing buffer was pre-incubated for 30 min at 37 °C prior to the initiation of the uptake experiment. After the pre-incubating buffer was removed, 200 μL of pre-warmed test drugs solution (Hank’s buffer containing 10 µM and 50 µM peramivir) or a mixture of test drugs and inhibitor was added into each well, and the plates were incubated at 37 °C for 5 min. At the end of incubation, cells were washed and lysed as described above. The cell lysate was collected and stored at −40 °C for LC-MS/MS analysis and protein measurement. The negative control (MOCK cells) and positive control were included simultaneously."}, "human OCTN2": {"target": "T2, human OCTN2 (Homo sapiens, UniProt O76082)", "T2 construct": "Huidi Jiang, Zhejiang University; host or cells: MDCK (MDCK-OCTN2); control MDCK-MOCK", "T2 sequence (O76082 1-557)": "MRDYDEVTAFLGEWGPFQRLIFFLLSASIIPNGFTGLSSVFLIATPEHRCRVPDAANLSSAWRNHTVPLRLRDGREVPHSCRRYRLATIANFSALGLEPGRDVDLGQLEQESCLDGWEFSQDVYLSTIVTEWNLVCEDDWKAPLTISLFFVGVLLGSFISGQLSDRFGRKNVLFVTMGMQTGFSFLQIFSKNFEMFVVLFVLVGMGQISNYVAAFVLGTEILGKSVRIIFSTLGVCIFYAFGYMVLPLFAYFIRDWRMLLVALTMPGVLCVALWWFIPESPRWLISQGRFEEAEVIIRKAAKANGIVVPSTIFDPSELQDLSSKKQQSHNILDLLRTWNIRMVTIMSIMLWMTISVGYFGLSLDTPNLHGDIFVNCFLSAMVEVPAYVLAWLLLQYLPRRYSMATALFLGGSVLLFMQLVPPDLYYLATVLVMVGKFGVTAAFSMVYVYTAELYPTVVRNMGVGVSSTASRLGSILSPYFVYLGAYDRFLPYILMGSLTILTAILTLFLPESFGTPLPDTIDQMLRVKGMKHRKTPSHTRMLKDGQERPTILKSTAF", "experiment": "Uptake study, MDCK cells overexpressing OCTN2", "format": "in vitro ADME", "method": "as §1"}, "[2]": {"system": "overexpressed cell lines (uptake transporters)", "experiment": "Uptake study by overexpression cell lines, 10 μM substrate", "format": "in vitro ADME", "conditions": "substrate concentration 10 μM", "method": "as §1"}},
  "data": [
    {"compound": "CCC(CC)[C@H](NC(C)=O)[C@@H]1[C@H](O)[C@@H](C(=O)O)C[C@H]1N=C(N)N", "note": "[Peramivir]", "values": [
      {"measurement": "exposure in alveolar epithelial lining fluid after inhalation relative to equivalent i.v. dose", "setting": "[1]", "value": "exceeding 370 times"},
      {"measurement": "tissue–plasma partition coefficient, Kp", "setting": "[1]; intravenous, all tissues except renal and alveolar epithelial lining", "value": "< 1"},
      {"measurement": "OCT1 substrate status", "setting": "human OCT1; HEK293-OCT1", "value": "does not act as a substrate"},
      {"measurement": "transporter-mediated uptake ratio (UR)", "setting": "human OCT1; HEK293-OCT1, 50 μM", "value": "< 1"},
      {"measurement": "inhibition ratio (IR)", "setting": "human OCT1; HEK293-OCT1, 50 μM, inhibitor verapamil (200 μM)", "value": "exceeding 98.51%"},
      {"measurement": "OCTN2 substrate status", "setting": "human OCTN2; MDCK-OCTN2", "value": "confirming peramivir as a substrate for the OCTN2 transporter"},
      {"measurement": "transporter-mediated uptake ratio (UR value)", "setting": "human OCTN2; MDCK-OCTN2, 50 μM", "value": 41.62},
      {"measurement": "inhibition ratio (IR value)", "setting": "human OCTN2; MDCK-OCTN2, 50 μM, inhibitor L-carnitine (200 μM)", "value": 65.69, "unit": "%"},
      {"measurement": "concentration of peramivir in uptake experiment (below the detection limit)", "setting": "[2]", "value": "< 2", "unit": "nM"}
    ]}
  ]
}
